Measured values as given in patent US20080274202A1, “Compositions and Method for Brain Specific Targeted Delivery of Therapeutic Agents” (priority 2005, published 2008).

Tested on: HOTCs
Assay: HOTC maintenance in serum-free media with antibiotic
Type: cell-based
Details: by 21 DIV, in SFM
Procedure: HOTCs were prepared and maintained by initial incubation in serum-based media followed by transfer to a serum-free media (SFM) at 4 days in vitro (DIV). The transfer from serum-containing medium to SFM prevented neuronal loss from occurring after two weeks of culture (stability was measured by neuron-specific nuclear protein (NeuN)-based western blots), and prevented glial activation in the HOTCs. SFM contained Neurobasal medium ((96%) from Invitrogen) supplemented to 42 mM glucose, 1 mM glutamine (from Sigma), 2% B27 supplement, 10 μg/mL gentamicin and […] Fungizone (from Invitrogen). […] The SFM was changed twice a week and the HOTCs were incubated at 36° C. with 5% CO2-balance air. Slices were maintained to 21 DIV to allow cultures to mature, and used from 21-30 DIV.

In the case of penicillin, the “CA3 field potentials from dentate gyrus stimulation” value was “no CA3 field potentials were seen” and the “pyramidal cell survival in HOTCs” value was “most pyramidal cells were dead”.
